Results from ChEMBL document CHEMBL1151032, “Local constrained shifty pseudopeptides inhibitors of rasfarnesyl transferase” (Bioorg Med Chem Lett, 1995).

What was measured:
[1] = molecular target: T1, Protein farnesyltransferase (Mus musculus, UniProt Q61239+Q8K2I1); experiment: Inhibition of farnesyl transferase in NIH3T3 cell based assay under reducing (+DTT) conditions; format: functional
[2] = molecular target: T2, Protein farnesyltransferase (Homo sapiens, UniProt P49354+P49356); experiment: In vitro inhibition of farnesyl transferase; format: protein-complex assay
[3] = molecular target: T1, Protein farnesyltransferase; experiment: Inhibition of farnesyl transferase in NIH3T3 cell based assay in non-reducing (-DTT) conditions; format: functional
[4] = molecular target: Protein farnesyltransferase (Bos taurus, UniProt P29702+P49355); experiment: In vitro inhibition of bovine farnesyl transferase; format: protein-complex assay
[5] = molecular target: T2, Protein farnesyltransferase; experiment: In vitro inhibition of farnesyl transferase enzyme (inactive); format: protein-complex assay
[6] = tested on: NIH3T3; experiment: Inhibition of Ki-Ras-transformed NIH3T3 cell growth at 5 uM; format: functional; details: Mus musculus
[7] = tested on: NIH3T3; experiment: Inhibition of Ha-Ras-transformed NIH3T3 cell growth at 5 uM; format: functional; details: Mus musculus
[8] = tested on: NIH3T3; experiment: Inhibition of Ha-Ras-transformed NIH3T3 cell growth at 1 uM; format: functional; details: Mus musculus
[9] = tested on: NIH3T3; experiment: Inhibition of Ha-Ras-transformed NIH3T3 cell growth at 10 uM; format: functional; details: Mus musculus
[10] = tested on: NIH3T3; experiment: Inhibition of Ki-Ras-transformed NIH3T3 cell growth at 10 uM; format: functional; details: Mus musculus
[11] = tested on: NIH3T3; experiment: Inhibition of Ki-Ras-transformed NIH3T3 cell growth at 1 uM; format: functional; details: Mus musculus
[12] = tested on: NIH3T3; experiment: Inhibition of v-Raf-transformed NIH3T3 cell growth at 10 uM; format: functional; details: Mus musculus
[13] = molecular target: T2, Protein farnesyltransferase; experiment: In vitro inhibition of Human farnesyl transferase; format: protein-complex assay

`CSCC[C@H](NC(=O)[C@@H]1Cc2ccccc2CN1C(=O)CN(CCSSCCN(CC(=O)N1Cc2ccccc2C[C@H]1C(=O)N[C@@H](CCSC)C(=O)O)C(=O)OC(C)(C)C)C(=O)OC(C)(C)C)C(=O)O` showed an IC50 [1] greater than 1000 µM, an IC50 [2] greater than 100 µM and an IC50 [3] greater than 1000 µM.
Work on `CSCC[C@H](NC(=O)[C@H](Cc1ccccc1)NC(=O)[C@@H](NC[C@@H](N)CS)C(C)C)C(=O)O` yielded an IC50 [4] of 0.023 µM.
`COC(=O)C(CCSC)NC(=O)C1Cc2ccccc2CN1CC(=O)NCCSSCCNC(=O)CN1Cc2ccccc2CC1C(=O)NC(CCSC)C(=O)OC` (stereo not given) was tested, and the IC50 [5] was “Not Active”.
Work on `CSCC[C@H](NC(=O)[C@@H]1Cc2ccccc2CN1C(=O)CN(CCS)C(=O)OC(C)(C)C)C(=O)O` yielded an IC50 [2] greater than 100 µM.
Work on `CSCC[C@H](NC(=O)[C@H](Cc1ccccc1)NC[C@@H](NC[C@@H](N)CS)C(C)C)C(=O)O` yielded an IC50 [4] of 0.021 µM.
In the case of `COC(=O)[C@H](CCSC)NC(=O)[C@@H]1Cc2ccccc2CN1C(=O)CNCCSSCCNCC(=O)N1Cc2ccccc2C[C@H]1C(=O)N[C@@H](CCSC)C(=O)OC`, the inhibition at 5 µM [6] is reported as 89%, the inhibition at 5 µM [7] is reported as 80% and the IC50 [1] is reported as 100 µM. The IC50 [2] was 0.145 µM, the inhibition at 1 µM [8] was 9% and the inhibition at 10 µM [9] was 91%. The inhibition at 10 µM [10] was 97%, the IC50 [3] was 100 µM and the inhibition at 1 µM [11] was 24%. The inhibition at 10 µM [12] was 9%.
With `CSCC[C@H](NC(=O)[C@@H]1Cc2ccccc2CN1C(=O)[C@H](C(C)C)N(C)C(=O)[C@@H](N)CS)C(=O)O` the IC50 [13] was 0.005 µM.
With `COC(=O)C(CCSC)NC(=O)C1Cc2ccccc2CN1CC(=O)NCCS` (stereo not given) the IC50 [5] was “Not Active”.
Work on `COC(=O)[C@H](CCSC)NC(=O)[C@@H]1Cc2ccccc2CN1C(=O)CNCCS` yielded an IC50 [2] of 0.29 µM.
Work on `CSCCC(NC(=O)C1Cc2ccccc2CN1CC(=O)NCCS)C(=O)O` (stereo not given) yielded an IC50 [2] of 2 µM.
`CSCCC(NC(=O)C1Cc2ccccc2CN1CC(=O)NCCSSCCNC(=O)CN1Cc2ccccc2CC1C(=O)NC(CCSC)C(=O)O)C(=O)O` (stereo not given) was tested, and the IC50 [5] was “Not Active”.
`CSCC[C@H](NC(=O)[C@@H]1Cc2ccccc2CN1C(=O)CNCCSSCCNCC(=O)N1Cc2ccccc2C[C@H]1C(=O)N[C@@H](CCSC)C(=O)O)C(=O)O` was tested, and the IC50 [1] was greater than 1000 µM, the IC50 [2] was 0.05 µM and the IC50 [3] was greater than 1000 µM.
Compound `COC(=O)[C@H](CCSC)NC(=O)[C@@H]1Cc2ccccc2CN1C(=O)CN(CCS)C(=O)OC(C)(C)C` has an IC50 [2] greater than 100 µM.
Compound `CSCC[C@H](NC(=O)[C@@H]1Cc2ccccc2CN1C(=O)CNCCS)C(=O)O` has an IC50 [2] of 0.1 µM.
In the case of `COC(=O)[C@H](CCSC)NC(=O)[C@@H]1Cc2ccccc2CN1C(=O)CN(CCSSCCN(CC(=O)N1Cc2ccccc2C[C@H]1C(=O)N[C@@H](CCSC)C(=O)OC)C(=O)OC(C)(C)C)C(=O)OC(C)(C)C`, the IC50 [1] is reported as greater than 1000 µM, the IC50 [2] is reported as greater than 100 µM and the IC50 [3] is reported as greater than 1000 µM.
